Where two headings read alike, the source gives them in different places.
System: SU-DHL-4 cells
Test: Inhibitory effect on cell viability in SU-DHL-4 cell line (Test Example 1)
Assay type: cell-based, human
Conditions: SU-DHL-4 cells, 72 hours, Cell Counting Kit-8, concentration showing 90% inhibition of cell viability, read-out: SU-DHL-4 Cell Viability Inhibition Rate IC90
Summary of the method: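 SU-DHL-4 cells were grown at 37° C. under 5% CO2 in RPMI1640 with 10 vol % heat-inactivated FBS plus penicillin/streptomycin, seeded and precultured for 18 to 25 hours, then exposed to test compound at 0.1 vol % DMSO for 72 hours. Viability was read with Cell Counting Kit-8 by absorbance at 450 nm.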

SMILES | IC90 (Homo sapiens) [nM] | IC90 [nM]
CCC(=O)N1c2ccccc2[C@H](Nc2ccc(NC(=O)CCCC(=O)Nc3ccc(OCCN4CCN(C)C(=O)[C@H]4C)cc3)cc2)C[C@@H]1C [Compound 16e, N^1-(4-(2-((R)-2,4-Dimethyl-3-oxopiperazin-1-yl)ethoxy)phenyl)-N5-(4-(((2S,4R)-2-methyl-1-propionyl-1,2,3,4-tetrahydroquinolin-4-yl)amino)phenyl)glutaramide] | 5.97 | –
CCC(=O)N1c2ccccc2[C@H](Nc2ccc(NC(=O)CCCC(=O)NC3CCCN(Cc4ccc(NS(=O)(=O)CC)cc4-c4cn(C)c(=O)cc4OC)C3)cc2)C[C@@H]1C (stereo partly drawn) [Compound 16f, N^1-(1-(4-(Ethylsulfonamide)-2-(4-methoxy-1-methyl-6-oxo-1,6-dihydropyridin-3-yl)benzyl)piperidin-3-yl)-N5-(4-(((2S,4R)-2-methyl-1-propionyl-1,2,3,4-tetrahydroquinolin-4-yl)amino)phenyl)glutaramide] | – | 24.6
CCC(=O)N1c2ccccc2[C@H](Nc2ccc(NC(=O)CCCC(=O)NC3CC4(C3)CN(Cc3cc(O)cc(-c5c(C)noc5C)c3)C4)cc2)C[C@@H]1C [Compound 16g, N^1-(2-(3-(3,5-Dimethylisoxazol-4-yl)-5-hydroxybenzyl)-2-azaspiro[3.3]heptan-6-yl)-N5-(4-(((2S,4R)-2-methyl-1-propionyl-1,2,3,4-tetrahydroquinolin-4-yl)amino)phenyl)glutaramide] | 14.9 | –
CCC(=O)N1c2ccccc2[C@H](Nc2ccc(NC(=O)CCCC(=O)NC3CCN(Cc4ccccc4-c4cn(C)c(=O)cc4OC)CC3)cc2)C[C@@H]1C [Compound 16h, N^1-(1-(2-(4-Methoxy-1-methyl-6-oxo-1,6-dihydropyridin-3-yl)benzyl)piperidin-4-yl)-N5-(4-(((2S,4R)-2-methyl-1-propionyl-1,2,3,4-tetrahydroquinolin-4-yl)amino)phenyl)glutaramide] | 68.4 | –
CCC(=O)N1c2ccccc2[C@H](Nc2ccc(NC(=O)CCCC(=O)NC34CC(NCc5cc(O)cc(-c6c(C)noc6C)c5)(C3)C4)cc2)C[C@@H]1C [Compound 16i, N^1-(3-((3-(3,5-Dimethylisoxazol-4-yl)-5-hydroxybenzyl)amino)bicyclo[1.1.1]pentan-1-yl)-N5-(4-(((2S,4R)-2-methyl-1-propionyl-1,2,3,4-tetrahydroquinolin-4-yl)amino)phenyl)glutaramide] | 7.84 | –
CCC(=O)N1c2ccccc2[C@H](Nc2ccc(NC(=O)CCCC(=O)Nc3ccc(Oc4ccccc4-c4cn(C)c(=O)cc4OC)cc3)cc2)C[C@@H]1C [Compound 16k, N^1-(4-(2-(4-Methoxy-1-methyl-6-oxo-1,6-dihydropyridin-3-yl)phenoxy)phenyl)-N5-(4-(((2S,4R)-2-methyl-1-propionyl-1,2,3,4-tetrahydroquinolin-4-yl)amino)phenyl)glutaramide] | 0.9 | –
CCC(=O)N1c2ccccc2[C@H](Nc2ccc(NC(=O)CCCC(=O)NC3CCC(Oc4ccc(NS(=O)(=O)CC)cc4-c4cn(C)c(=O)cc4OC)CC3)cc2)C[C@@H]1C (stereo partly drawn) [Compound 16l, N^1-((1r,4r)-4-(4-(Ethylsulfonamide)-2-(4-methoxy-1-methyl-6-oxo-1,6-dihydropyridin-3-yl)phenoxy)cyclohexyl)-N5-(4-(((2S,4R)-2-methyl-1-propionyl-1,2,3,4-tetrahydroquinolin-4-yl)amino)phenyl)glutaramide] | – | 89.8
CCC(=O)N1c2ccccc2[C@H](Nc2ccc(-n3cc(CNC(=O)c4cccc(Oc5ccc(NS(=O)(=O)CC)cc5-c5cn(C)c(=O)cc5OC)c4)nn3)cc2)C[C@@H]1C [Compound 16n, 3-(4-(Ethylsulfonamide)-2-(4-methoxy-1-methyl-6-oxo-1,6-dihydropyridin-3-yl)phenoxy)-N-((1-(4-(((2S,4R)-2-methyl-1-propionyl-1,2,3,4-tetrahydroquinolin-4-yl)amino)phenyl)-1H-1,2,3-triazol-4-yl)methyl)benzamide] | – | 0.48

Results, then the molecule that gave them:

IC90 (Homo sapiens) [nM] | IC90 [nM] | SMILES
– | 1.74 | CCC(=O)N1c2ccccc2[C@H](Nc2ccc(NC(=O)CCCC(=O)NC3CCC(Cn4c(CC)cc5c4CCCC5=O)CC3)cc2)C[C@@H]1C (stereo partly drawn) [Compound 17b, N^1-((1r,4r)-4-((2-Ethyl-4-oxo-4,5,6,7-tetrahydro-1H-indol-1-yl)methyl)cyclohexyl)-N5-(4-(((2S,4R)-2-methyl-1-propionyl-1,2,3,4-tetrahydroquinolin-4-yl)amino)phenyl)glutaramide]
2.05 | – | CCC(=O)N1c2ccccc2[C@H](Nc2ccc(NC(=O)CCCC(=O)NC34CCC(NCc5cc(O)cc(-c6c(C)noc6C)c5)(CC3)CC4)cc2)C[C@@H]1C [Compound 17c, N^1-(4-((3-(3,5-Dimethylisoxazol-4-yl)-5-hydroxybenzyl)amino)bicyclo[2.2.2]octan-1-yl)-N5-(4-(((2S,4R)-2-methyl-1-propionyl-1,2,3,4-tetrahydroquinolin-4-yl)amino)phenyl)glutaramide]
0.13 | – | CCC(=O)N1c2ccccc2[C@H](Nc2ccc(-n3cc(CNC(=O)c4cccc(Oc5ccccc5-c5cn(C)c(=O)cc5OC)c4)nn3)cc2)C[C@@H]1C [Compound 17d, 3-(2-(4-Methoxy-1-methyl-6-oxo-1,6-dihydropyridin-3-yl)phenoxy)-N-((1-(4-(((2S,4R)-2-methyl-1-propionyl-1,2,3,4-tetrahydroquinolin-4-yl)amino)phenyl)-1H-1,2,3-triazol-4-yl)methyl)benzamide]
1.82 | – | CCC(=O)N1c2ccccc2[C@H](Nc2ccc(CNCc3cn(-c4ccc(N[C@@H]5C[C@H](C)N(C(=O)CC)c6ccccc65)nc4)nn3)cc2)C[C@@H]1C [Compound 17e, 1-((2S,4R)-2-Methyl-4-((4-((((1-(6-(((2S,4R)-2-methyl-1-propionyl-1,2,3,4-tetrahydroquinolin-4-yl)amino)pyridin-3-yl)-1H-1,2,3-triazol-4-yl)methyl)amino)methyl)phenyl)amino)-3,4-dihydroquinolin-1(2H)-yl)propan-1-one]
1.45 | – | CCC(=O)N1c2ccccc2[C@H](Nc2ccc(-c3cnn(CCNC(=O)C4CCN(Cc5cc(O)cc(-c6c(C)noc6C)c5)CC4)c3)cc2)C[C@@H]1C [Compound 17i, 1-(3-(3,5-Dimethylisoxazol-4-yl)-5-hydroxybenzyl)-N-(2-(4-(4-(((2S,4R)-2-methyl-1-propionyl-1,2,3,4-tetrahydroquinolin-4-yl)amino)phenyl)-1H-pyrazol-1-yl)ethyl)piperidine-4-carboxamide]
29 | – | CCC(=O)N1c2ccccc2[C@H](Nc2ccc(NC(=O)NCC(=O)NC3CCN(Cc4cc(O)cc(-c5c(C)noc5C)c4)CC3)cc2)C[C@@H]1C [Compound 17j, N-(1-(3-(3,5-Dimethylisoxazol-4-yl)-5-hydroxybenzyl)piperidin-4-yl)-2-(3-(4-(((2S,4R)-2-methyl-1-propionyl-1,2,3,4-tetrahydroquinolin-4-yl)amino)phenyl)ureido)acetamide]
43.7 | – | CCC(=O)N1c2ccccc2[C@H](Nc2ccc(NC(=O)CNC(=O)NC3CCN(Cc4cc(O)cc(-c5c(C)noc5C)c4)CC3)cc2)C[C@@H]1C [Compound 17k, 2-(3-(1-(3-(3,5-Dimethylisoxazol-4-yl)-5-hydroxybenzyl)piperidin-4-yl)ureido)-N-(4-(((2S,4R)-2-methyl-1-propionyl-1,2,3,4-tetrahydroquinolin-4-yl)amino)phenyl)acetamide]
